The record followed here is patent US7820623B2 (priority 2006, dated 2010).

Assay [1] deals with T1, human Kv1.3 (CHO) (Homo sapiens, UniProt P22001).
T1 construct: expressed in transfected cells
In words: cell-based. It is filed as cell-based.

Assay [2] concerns thapsigargin-induced IFN-g production in human whole blood. The assay is classed as cell-based. The conditions noted are these: read-out: Analogue Activity (IC50) WB/IFNg.
Assay [3] concerns thapsigargin-induced IL-2 production in human whole blood. Conditions: read-out: Analogue Activity (IC50) WB/IL-2.
For assay [4], the target named is human Kv1.3 (Homo sapiens, UniProt P22001). It is filed as cell-based. Also on record: expressed in transfected cells.

Where two headings read alike, the source gives them in different places. Bridge positions count the residues as written; N and C are the ends. Square brackets hold non-standard residues; d marks the D form. Peptide text beside a SMILES is read from it. 1Nal = N[C@@H](Cc1cccc2ccccc12)C(=O)O

T1 sequence (P22001 whole entry): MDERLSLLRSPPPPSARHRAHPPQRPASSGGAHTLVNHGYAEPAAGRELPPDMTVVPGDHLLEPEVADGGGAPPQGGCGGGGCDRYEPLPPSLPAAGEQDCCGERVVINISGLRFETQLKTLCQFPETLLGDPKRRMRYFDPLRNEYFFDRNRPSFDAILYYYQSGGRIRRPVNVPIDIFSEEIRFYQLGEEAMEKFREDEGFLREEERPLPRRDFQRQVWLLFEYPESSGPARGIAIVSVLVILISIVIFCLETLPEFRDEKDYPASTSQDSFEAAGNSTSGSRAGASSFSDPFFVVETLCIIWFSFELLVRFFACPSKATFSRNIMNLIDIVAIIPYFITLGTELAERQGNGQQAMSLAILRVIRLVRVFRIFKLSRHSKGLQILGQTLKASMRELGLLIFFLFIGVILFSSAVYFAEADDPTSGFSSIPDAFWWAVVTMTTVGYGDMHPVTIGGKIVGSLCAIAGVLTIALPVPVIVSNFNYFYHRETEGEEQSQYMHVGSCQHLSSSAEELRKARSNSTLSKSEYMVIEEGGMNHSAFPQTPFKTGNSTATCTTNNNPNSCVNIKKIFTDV
human Kv1.3, sequence (P22001 whole entry): as above

For E. coli-derived ShK[2-35]-L-Fc, the IC50 in assay [1] (read-out: Kv1.3 IC50 by IWQ) was determined as 4.9 nM.

Regarding E. coli-derived Shk[1-35]-L-Fc, the IC50 in assay [1] (read-out: Kv1.3 IC50 by IWQ) is 2.4 nM.

Regarding `CC[C@H](C)[C@@H]1NC(=O)[C@H](CCCCN)NC(=O)[C@@H](NC(=O)[C@H](CCCCN)NC(=O)[C@@H](NC(=O)[C@H](CC(N)=O)NC(=O)[C@@H](NC(=O)[C@@H](NC(=O)[C@@H](NC(=O)CN)C(C)C)[C@@H](C)CC)[C@@H](C)CC)C(C)C)CSSC[C@@H]2NC(=O)[C@H](CCCCN)NC(=O)CNC(=O)[C@H](Cc3ccccc3)NC(=O)[C@H](CCCNC(=N)N)NC(=O)[C@H](CCSC)NC(=O)CNC(=O)[C@H](C)NC(=O)[C@H](CCCCN)NC(=O)[C@H](CCCCN)NC(=O)[C@@H]3CSSC[C@@H](C(=O)N[C@H](C(=O)N4CCC[C@H]4C(=O)N[C@@H](CCCCN)C(=O)O)[C@@H](C)O)NC(=O)[C@H](Cc4c[nH]cn4)NC(=O)[C@H](CSSC[C@H](NC(=O)[C@H](CCC(N)=O)NC(=O)[C@H](CCCNC(=N)N)NC(=O)[C@H](CO)NC1=O)C(=O)N[C@@H](CC(C)C)C(=O)N[C@@H](CCC(=O)O)C(=O)N1CCC[C@H]1C(=O)N3)NC(=O)[C@H](CCCCN)NC(=O)CNC(=O)[C@H](Cc1cccc3ccccc13)NC(=O)[C@H](CCSC)NC2=O` [N30Nal] (H-GVIINVKCKISRQCLEPCKKAGMRFGKCM[1Nal]GKCHCTPK-OH; disulfide 8-28, 14-33, 18-35), the results for the IC50 in assay [1] and in assay [2] were more than 3.33 nM and 37 nM, respectively.

Take `CC[C@H](C)[C@@H]1NC(=O)[C@H](CCCCN)NC(=O)[C@@H](NC(=O)[C@H](CCCCN)NC(=O)[C@@H](NC(=O)[C@H](CC(N)=O)NC(=O)[C@@H](NC(=O)[C@@H](NC(=O)[C@@H](NC(=O)CN)C(C)C)[C@@H](C)CC)[C@@H](C)CC)C(C)C)CSSC[C@@H]2NC(=O)[C@H](C)NC(=O)CNC(=O)[C@H](Cc3ccccc3)NC(=O)[C@H](CCCNC(=N)N)NC(=O)[C@H](CCSC)NC(=O)CNC(=O)[C@H](C)NC(=O)[C@H](CCCCN)NC(=O)[C@H](CCCCN)NC(=O)[C@@H]3CSSC[C@@H](C(=O)N[C@H](C(=O)N4CCC[C@H]4C(=O)N[C@@H](CCCCN)C(=O)O)[C@@H](C)O)NC(=O)[C@H](Cc4c[nH]cn4)NC(=O)[C@H](CSSC[C@H](NC(=O)[C@H](CCC(N)=O)NC(=O)[C@H](CCCNC(=N)N)NC(=O)[C@H](CO)NC1=O)C(=O)N[C@@H](CC(C)C)C(=O)N[C@@H](CCC(=O)O)C(=O)N1CCC[C@H]1C(=O)N3)NC(=O)[C@H](CCCCN)NC(=O)CNC(=O)[C@H](CC(N)=O)NC(=O)[C@H](CCSC)NC2=O` [K27A] (H-GVIINVKCKISRQCLEPCKKAGMRFGACMNGKCHCTPK-OH; disulfide 8-28, 14-33, 18-35): the IC50 in assay [3] worked out at 1.23 nM; in assay [2] it was 1.58 nM. For the same molecule, the “Kv1.3 Selectivity (= Kv1.1/Kv.3 IC50)” value in assay [4] came out at 35.

As to `CC[C@H](C)[C@@H]1NC(=O)[C@H](CCCCN)NC(=O)[C@@H](NC(=O)[C@H](CCCCN)NC(=O)[C@@H](NC(=O)[C@H](CC(N)=O)NC(=O)[C@@H](NC(=O)[C@@H](NC(=O)[C@@H](NC(=O)CN)C(C)C)[C@@H](C)CC)[C@@H](C)CC)C(C)C)CSSC[C@@H]2NC(=O)[C@H](CCCCN)NC(=O)CNC(=O)[C@H](Cc3ccccc3)NC(=O)[C@H](CCCNC(=N)N)NC(=O)[C@H](CCSC)NC(=O)CNC(=O)[C@H](C)NC(=O)[C@H](CCCCN)NC(=O)[C@H](CCCCN)NC(=O)[C@@H]3CSSC[C@@H](C(=O)N[C@H](C(=O)N4CCC[C@H]4C(=O)N[C@@H](CCCCN)C(=O)O)[C@@H](C)O)NC(=O)[C@H](CCC(=O)O)NC(=O)[C@H](CSSC[C@H](NC(=O)[C@H](CCC(N)=O)NC(=O)[C@H](CCCNC(=N)N)NC(=O)[C@H](CO)NC1=O)C(=O)N[C@@H](CC(C)C)C(=O)N[C@@H](CCC(=O)O)C(=O)N1CCC[C@H]1C(=O)N3)NC(=O)[C@H](CCCCN)NC(=O)CNC(=O)[C@H](CC(N)=O)NC(=O)[C@H](CCSC)NC2=O` [H34E] (H-GVIINVKCKISRQCLEPCKKAGMRFGKCMNGKCECTPK-OH; disulfide 8-28, 14-33, 18-35), the IC50 amounted to 1.62 nM in assay [3] and 2.38 nM in assay [2]. For the same molecule, the “Kv1.3 Selectivity (= Kv1.1/Kv.3 IC50)” value in assay [4] is listed as 30.

Turning to `CC[C@H](C)[C@@H]1NC(=O)[C@H](CCCCN)NC(=O)[C@@H](NC(=O)[C@H](CCCCN)NC(=O)[C@@H](NC(=O)[C@H](CC(N)=O)NC(=O)[C@@H](NC(=O)[C@@H](NC(=O)[C@@H](NC(=O)CN)C(C)C)[C@@H](C)CC)[C@@H](C)CC)C(C)C)CSSC[C@@H]2NC(=O)[C@H](CCCCN)NC(=O)CNC(=O)[C@H](Cc3ccccc3)NC(=O)[C@H](CCCNC(=N)N)NC(=O)[C@H](CCSC)NC(=O)CNC(=O)[C@H](C)NC(=O)[C@H](CCCCN)NC(=O)[C@H](CCCCN)NC(=O)[C@@H]3CSSC[C@@H](C(=O)N[C@H](C(=O)N4CCC[C@H]4C(=O)N[C@@H](CCCCN)C(=O)O)[C@@H](C)O)NC(=O)[C@H](Cc4c[nH]cn4)NC(=O)[C@H](CSSC[C@H](NC(=O)[C@H](CCC(N)=O)NC(=O)[C@H](CCCNC(=N)N)NC(=O)[C@H](CO)NC1=O)C(=O)N[C@@H](CCC(=O)O)C(=O)N[C@@H](CCC(=O)O)C(=O)N1CCC[C@H]1C(=O)N3)NC(=O)[C@H](CCCCN)NC(=O)CNC(=O)[C@H](CC(N)=O)NC(=O)[C@H](CCSC)NC2=O` [L15E] (H-GVIINVKCKISRQCEEPCKKAGMRFGKCMNGKCHCTPK-OH; disulfide 8-28, 14-33, 18-35), the figures for the IC50 in assay [3] and in assay [2] were 0.785 nM and 1.06 nM, respectively. In addition, the “Kv1.3 Selectivity (= Kv1.1/Kv.3 IC50)” value in assay [4] was found to be 342.

With `CC[C@H](C)[C@@H]1NC(=O)[C@H](CCCCN)NC(=O)[C@@H](NC(=O)[C@H](CCCCN)NC(=O)[C@@H](NC(=O)[C@H](CC(N)=O)NC(=O)[C@@H](NC(=O)[C@@H](NC(=O)[C@@H](NC(=O)CN)C(C)C)[C@@H](C)CC)[C@@H](C)CC)C(C)C)CSSC[C@@H]2NC(=O)[C@H](CCCCN)NC(=O)CNC(=O)[C@H](Cc3ccccc3)NC(=O)[C@H](CCCNC(=N)N)NC(=O)[C@H](CCSC)NC(=O)CNC(=O)[C@H](C)NC(=O)[C@H](CCCCN)NC(=O)[C@H](CCCCN)NC(=O)[C@@H]3CSSC[C@@H](C(=O)N[C@H](C(=O)N4CCC[C@H]4C(=O)N[C@@H](CCCCN)C(=O)O)[C@@H](C)O)NC(=O)[C@H](Cc4c[nH]cn4)NC(=O)[C@H](CSSC[C@H](NC(=O)[C@H](CCC(N)=O)NC(=O)[C@H](C)NC(=O)[C@H](CO)NC1=O)C(=O)N[C@@H](CC(C)C)C(=O)N[C@@H](CCC(=O)O)C(=O)N1CCC[C@H]1C(=O)N3)NC(=O)[C@H](CCCCN)NC(=O)CNC(=O)[C@H](CC(N)=O)NC(=O)[C@H](CCSC)NC2=O` [R12A] (H-GVIINVKCKISAQCLEPCKKAGMRFGKCMNGKCHCTPK-OH; disulfide 8-28, 14-33, 18-35), the IC50 turned out to be 0.123 nM in assay [3] and 0.155 nM in assay [2]. The “Kv1.3 Selectivity (= Kv1.1/Kv.3 IC50)” value in assay [4] is listed as 17.

Consider `CC[C@H](C)[C@@H]1NC(=O)[C@H](CCCCN)NC(=O)[C@@H](NC(=O)[C@H](CCCCN)NC(=O)[C@@H](NC(=O)[C@H](CC(N)=O)NC(=O)[C@@H](NC(=O)[C@@H](NC(=O)[C@@H](NC(=O)CN)C(C)C)[C@@H](C)CC)[C@@H](C)CC)C(C)C)CSSC[C@@H]2NC(=O)[C@H](CCCCN)NC(=O)CNC(=O)[C@H](Cc3ccccc3)NC(=O)[C@H](CCCNC(=N)N)NC(=O)[C@H](CCSC)NC(=O)CNC(=O)[C@H](C)NC(=O)[C@H](CCCCN)NC(=O)[C@H](CCCCN)NC(=O)[C@@H]3CSSC[C@@H](C(=O)N[C@H](C(=O)N4CCC[C@H]4C(=O)N[C@@H](CCCCN)C(=O)O)[C@@H](C)O)NC(=O)[C@H](Cc4c[nH]cn4)NC(=O)[C@H](CSSC[C@H](NC(=O)[C@H](CCC(N)=O)NC(=O)[C@H](CCCNC(=N)N)NC(=O)[C@H](CCCNC(=N)N)NC1=O)C(=O)N[C@@H](CC(C)C)C(=O)N[C@@H](CCC(=O)O)C(=O)N1CCC[C@H]1C(=O)N3)NC(=O)[C@H](CCCCN)NC(=O)CNC(=O)[C@H](CC(N)=O)NC(=O)[C@H](CCSC)NC2=O` [S11R] (H-GVIINVKCKIRRQCLEPCKKAGMRFGKCMNGKCHCTPK-OH; disulfide 8-28, 14-33, 18-35), for which the IC50 in assay [3] worked out at 2.12 nM; in assay [2], 4.07 nM. For the same molecule, the “Kv1.3 Selectivity (= Kv1.1/Kv.3 IC50)” value in assay [4] is recorded as 228.

As to `CC[C@H](C)[C@@H]1NC(=O)[C@H](CCCCN)NC(=O)[C@@H](NC(=O)[C@H](CCCCN)NC(=O)[C@@H](NC(=O)[C@H](CC(N)=O)NC(=O)[C@@H](NC(=O)[C@@H](NC(=O)[C@@H](NC(=O)CN)C(C)C)[C@@H](C)CC)[C@@H](C)CC)C(C)C)CSSC[C@@H]2NC(=O)[C@H](CCCCN)NC(=O)CNC(=O)[C@H](Cc3ccccc3)NC(=O)[C@H](CCCNC(=N)N)NC(=O)[C@H](CCSC)NC(=O)CNC(=O)[C@H](C)NC(=O)[C@H](CCCCN)NC(=O)[C@H](CCCCN)NC(=O)[C@@H]3CSSC[C@@H](C(=O)N[C@H](C(=O)N4CCC[C@H]4C(=O)N[C@@H](CCCCN)C(=O)O)[C@@H](C)O)NC(=O)[C@H](Cc4c[nH]cn4)NC(=O)[C@H](CSSC[C@H](NC(=O)[C@H](CCC(N)=O)NC(=O)[C@H](CCCNC(=N)N)NC(=O)[C@H](CO)NC1=O)C(=O)N[C@@H](CC(C)C)C(=O)N[C@@H](CCC(=O)O)C(=O)N1CCC[C@H]1C(=O)N3)NC(=O)[C@H](CCCCN)NC(=O)CNC(=O)[C@H](C)NC(=O)[C@H](CCSC)NC2=O` [N30A] (H-GVIINVKCKISRQCLEPCKKAGMRFGKCMAGKCHCTPK-OH; disulfide 8-28, 14-33, 18-35), the IC50 in assay [3] was determined as 0.971 nM; in assay [2], 0.637 nM. Further, the “Kv1.3 Selectivity (= Kv1.1/Kv.3 IC50)” value in assay [4] turned out to be 14.
